The test concerns the target T1, PDGF-receptor beta enzyme comprising the tyrosine kinase domain (Homo sapiens, UniProt P09619).
T1 construct: from amino acid 545 to 1106 of GenBank Access NO: AAA36427
Nature of the test: Inhibition of PDGF-receptor kinase activity (cell-free, PLC1 peptide, 33P Flashplate). The format is biochemical. To be noted: for inhibition at 10 µM: compound at 10 uM, read-out: Percent Inhibition @ 10 uM. Here is the method:
PDGF-R kinase activity was assayed by its ability to phosphorylate one of its target proteins, PLCγ, in a cell-free system, in particular, a PLC1 peptide comprising the tyrosine residue where the phosphorylation occurs was used for the assay.
10× Kinase Buffer (500 mM Tris-HCl pH=8, 100 mM MgCl2, 1 mM Na3VO4); 10 mM DTT (final concentration at 1 mM in assay); 10 mM ATP (final concentration at 5 μM in assay); ^33P-γ-ATP (Cat. No.: NEG/602H. 2000-3000 Ci/mmol) purchased from NEN; Purified, soluble, recombinant PDGF-receptor beta enzyme comprising the tyrosine kinase domain (from amino acid 545 to 1106 of GenBank Access NO: AAA36427 ) at 0.4 mg/mL; Enzyme Dilution Buffer (50 mM Tris-HCl pH=8.0, 0.1% BSA); Wash/Stop Buffer (PBS +100 mM EDTA); NEN Streptavidin Flashplates (Cat. No.: SMP-103) which binds to the biotinylated PLC1 peptide but not the PDGF-R enzyme; PLC1 peptide (Biotin-[…]-Amide) at 1 mM in 50 mM Tris-HCL with pH of 8.0.
Reagents were first mixed according the following regimen:
The above reaction mixture was dispensed into each well of a Flashplate at 70 μl/well. To test the effect of a compound on PDGF-R kinase activity, the test compound either in a fixed concentration or in serially diluted concentrations in 100% DMSO was added to appropriate wells at 1 μl/well.
Enzyme PDGF-R was diluted in Enzyme dilution buffer as following:
The kinase reaction was initiated by adding 30 μl of diluted PDGF-R enzyme solution to each well on the Flashplate containing hot ATP and PLC1, except wells of column 12 rows E through H, which were used to calculate the plate background. The Flashplate was swirled to mix and was incubated at 30° C. for 60 minutes. Then, the reaction mixture was discarded and the Flashplate was washed 3 times each with 200 μl Wash/Stop Buffer. Subsequently, each well on the Flashplate was filled with 200 μl of Wash/Stop buffer. The amount of ^33P retained in each well was measured using a Packard TopCount after the plate was sealed with a transparent plate sealer.
The percentage of inhibition of the test compound on PDGF-R kinase activity is defined as […].
In order to test the potency of inhibition of present compounds, an IC50 for an individual compound was measured using the above procedure. As used herein, the IC50 for PDGF-R kinase activity refers to the concentration of an inhibitor at which the activity of the PDGF-R kinase is reduced by one-half as compared with reactions containing no inhibitor.

Setting [1] is: PDGF-R kinase activity, read-out: IC50.

Structures are written as SMILES. Read-outs that look alike come from different tables or passages of the source.

T1 sequence (P09619 545-1106): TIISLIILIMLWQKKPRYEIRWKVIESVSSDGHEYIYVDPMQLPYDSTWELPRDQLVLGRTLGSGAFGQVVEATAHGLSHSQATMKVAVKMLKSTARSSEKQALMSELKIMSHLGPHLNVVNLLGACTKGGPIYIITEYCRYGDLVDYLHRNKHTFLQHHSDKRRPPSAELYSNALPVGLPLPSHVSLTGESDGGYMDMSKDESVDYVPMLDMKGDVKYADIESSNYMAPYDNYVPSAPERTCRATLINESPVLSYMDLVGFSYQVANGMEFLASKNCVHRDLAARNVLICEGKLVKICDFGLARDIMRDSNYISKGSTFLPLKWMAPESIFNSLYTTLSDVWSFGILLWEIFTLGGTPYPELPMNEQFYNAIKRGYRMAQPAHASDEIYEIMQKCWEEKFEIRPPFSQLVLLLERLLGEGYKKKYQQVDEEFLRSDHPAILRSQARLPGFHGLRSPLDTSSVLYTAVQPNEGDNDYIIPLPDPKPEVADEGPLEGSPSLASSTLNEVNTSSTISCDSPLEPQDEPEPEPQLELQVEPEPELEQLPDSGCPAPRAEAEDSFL

Broadly, the inhibition is the relative decrease from the control value, in per cent. One may read the IC50 as the concentration that inhibits the measured activity by half. For `COc1cccc(Nc2[nH]nc3c2Cc2ccccc2-3)c1` [Compound 343], the inhibition at 10 µM (PDGF-R kinase activity) was found to be 99.5%. Besides, under setting [1], the IC50 was found to be 0.00808 µM.
In the same order, the values of `COCCCOc1ccc2c(c1)Cc1c-2n[nH]c1Nc1ccc(OC)cc1` [Compound 143, (4-Methoxy-phenyl)-[6-(3-methoxy-propoxy)-2,4-dihydro-indeno[1,2-c]pyrazol-3-yl]-amine] are 67% and 8.12 µM.
The like results for `COc1ccc2c(c1)Cc1c-2n[nH]c1Nc1cc(OC)ccc1OC` [Compound 85, (2,5-Dimethoxy-phenyl)-(6-methoxy-2,4-dihydro-indeno[1,2-c]pyrazol-3-yl)-amine] were, in that order, 61% and 5.82 µM.
The like results for `CCC1c2cc(OC)c(OC)cc2-c2c1c(Nc1cccc(Br)c1)nn2C(=O)COC` (stereo not drawn) [Compound 514, 1-[3-(3-Bromo-phenylamino)-4-ethyl-6,7-dimethoxy-4H-indeno[1,2-c]pyrazol-1-yl]-2-methoxy-ethanone] were, in that order, 85% and 0.24 µM.
Turning to `COc1cccc(Nc2[nH]nc3c2Cc2cc(OCCCN4CCN(C)CC4)c(OC)cc2-3)c1` [Compound 215, {7-Methoxy-6-[3-(4-methyl-piperazin-1-yl)-propoxy]-2,4-dihydro-indeno[1,2-c]pyrazol-3-yl}-(3-methoxy-phenyl)-amine], the inhibition at 10 µM (PDGF-R kinase activity) is 99%. Moreover, under setting [1], the IC50 was found to be 0.0057 µM.
The like results for `COc1ccc(Nc2[nH]nc3c2Cc2cc(OC)c(OC)cc2-3)cc1` [Compound 6, (6,7-Dimethoxy-2,4-dihydro-indeno[1,2-c]pyrazol-3-yl)-(4-methoxy-phenyl)-amine] were, in that order, 75% and 0.131 µM.
The like results for `Fc1cccc(Nc2n[nH]c3c2Cc2sccc2-3)c1` [Compound 335, (5,7-Dihydro-1-thia-4,5-diaza-cyclopenta[a]pentalen-6-yl)-(3-fluoro-phenyl)-amine] were, in that order, 100% and 0.129 µM.
As to `COc1cc2c(cc1OC)-c1n[nH]c(Nc3cccc(C(=O)N4CCN(C)CC4)c3)c1C2` [Compound 319, [3-(6,7-Dimethoxy-2,4-dihydro-indeno[1,2-c]pyrazol-3-ylamino)-phenyl]-(4-methyl-piperazin-1-yl)-methanone], the inhibition at 10 µM (PDGF-R kinase activity) is 80.5%. The IC50 under setting [1] was found to be 2.2 µM.
In the same order, the values of `COc1cc2c(cc1OC)-c1n[nH]c(NCc3cc(Cl)cc(Cl)c3)c1C2` [Compound 271, (3,5-Dichloro-benzyl)-(6,7-dimethoxy-2,4-dihydro-indeno[1,2-c]pyrazol-3-yl)-amine] are 54.5% and 6.99 µM.
For the molecule `Brc1cccc(Nc2[nH]nc3c2Cc2cc4c(cc2-3)OCO4)c1` [Compound 95, (3-Bromo-phenyl)-(2,9-dihydro-5,7-dioxa-2,3-diaza-cyclopenta[a]-s-indacen-1-yl)-amine], the inhibition at 10 µM (PDGF-R kinase activity) was found to be 91%. Further, under setting [1], the IC50 was 0.063 µM.
The like results for `COc1cc2c(cc1OC)-c1c(c(Nc3cccc(F)c3)nn1C(=O)Oc1ccccc1Cl)C2` [Compound 513, 3-(3-Fluoro-phenylamino)-6,7-dimethoxy-4H-indeno[1,2-c]pyrazole-1-carboxylic acid 2-chloro-phenyl ester] were, in that order, 86% and 0.773 µM.
For `COc1cc2c(cc1OC)-c1n[nH]c(Nc3c(OC)ccnc3OC)c1C2` [Compound 454, (6,7-Dimethoxy-2,4-dihydro-indeno[1,2-c]pyrazol-3-yl)-(2,4-dimethoxy-pyridin-3-yl)-amine], the inhibition at 10 µM (PDGF-R kinase activity) came to 99%. In addition, the IC50 under setting [1] was 0.258 µM.
The like results for `COc1cc2c(cc1OC)C(C)(C)c1c-2n[nH]c1Nc1cccc(F)c1` [Compound 487, (6,7-Dimethoxy-4,4-dimethyl-2,4-dihydro-indeno[1,2-c]pyrazol-3-yl)-(3-fluoro-phenyl)-amine] were, in that order, 43% and 37.5 µM.
In the same order, the values of `COc1ccc(OC)c(Nc2[nH]nc3c2Cc2c(C)cccc2-3)c1` [Compound 101, (2,5-Dimethoxy-phenyl)-(5-methyl-2,4-dihydro-indeno[1,2-c]pyrazol-3-yl)-amine] are 52% and 1.09 µM.
For `c1ccc(Nc2[nH]nc3c2CCOc2ccccc2-3)cc1` [Compound 318, (4,5-Dihydro-2H-6-oxa-1,2-diaza-benzo[e]azulen-3-yl)-phenyl-amine], the inhibition at 10 µM (PDGF-R kinase activity) was 23%. Further, the IC50 under setting [1] is 34.4 µM.
On to `COc1cc2c(cc1OC)-c1n[nH]c(Nc3cc(C(C)(C)C)cc(C(C)(C)C)c3)c1C2` [Compound 279, (3,5-Di-tert-butyl-phenyl)-(6,7-dimethoxy-2,4-dihydro-indeno[1,2-c]pyrazol-3-yl)-amine], for which, under “PDGF-R kinase activity”, the inhibition at 10 µM amounted to 19.5%. The IC50 under setting [1] was 203 µM.
The like results for `COc1cc2c(cc1OC)C(C)c1c-2n[nH]c1Nc1cccc(OCc2ccccc2)c1` (stereo not drawn) [Compound 254, (3-Benzyloxy-phenyl)-(6,7-dimethoxy-4-methyl-2,4-dihydro-indeno[1,2-c]pyrazol-3-yl)-amine] were, in that order, 89% and 0.181 µM.
Regarding `COC(=O)n1nc(Nc2cccc(F)c2)c2c1-c1cc(OC)c(OC)cc1C2` [Compound 439, 3-(3-Fluoro-phenylamino)-6,7-dimethoxy-4H-indeno[1,2-c]pyrazole-1-carboxylic acid methyl ester], where the note is “PDGF-R kinase activity”, the inhibition at 10 µM was 69.5%. Besides, under setting [1], the IC50 stood at 0.62 µM.
In the same order, the values of `COc1ccc(Nc2[nH]nc3c2Cc2ccc(OC)cc2-3)cc1` [Compound 171, (7-Methoxy-2,4-dihydro-indeno[1,2-c]pyrazol-3-yl)-(4-methoxy-phenyl)-amine] are 92.5% and 0.123 µM.
In the same order, the values of `COc1cc2c(cc1OC)-c1n[nH]c(NC3CCCCC3)c1C2` [Compound 67, Cyclohexyl-(6,7-dimethoxy-2,4-dihydro-indeno[1,2-c]pyrazol-3-yl)-amine] are 77% and 0.617 µM.
The like results for `CCOc1cc2c(cc1OCC)-c1n[nH]c(Nc3cccc(OC)c3)c1C2` [Compound 245, (6,7-Diethoxy-2,4-dihydro-indeno[1,2-c]pyrazol-3-yl)-(3-methoxy-phenyl)-amine] were, in that order, 87% and 0.001 µM.
With `CCOc1cc2c(cc1OCC)-c1n[nH]c(NCc3c(Cl)cccc3Cl)c1C2` [Compound 295, (2,6-Dichloro-benzyl)-(6,7-diethoxy-2,4-dihydro-indeno[1,2-c]pyrazol-3-yl)-amine], the inhibition at 10 µM (PDGF-R kinase activity) was determined as 81.5%. Moreover, the IC50 under setting [1] was 0.00164 µM.
In the same order, the values of `CCOc1cccc(Nc2[nH]nc3c2Cc2c(OCCCO)cccc2-3)c1` [Compound 441, 3-[3-(3-Ethoxy-phenylamino)-2,4-dihydro-indeno[1,2-c]pyrazol-5-yloxy]-propan-1-ol] are 96% and 0.206 µM.
Turning to `COc1cc2c(cc1OC)C(C)c1c-2n[nH]c1Nc1cccnc1Cl` (single isomer, unassigned) [Compound 559, (2-Chloro-pyridin-3-yl)-(6,7-dimethoxy-4-methyl-2,4-dihydro-indeno[1,2-c]pyrazol-3-yl)-amine], under “PDGF-R kinase activity”, the inhibition at 10 µM was found to be 102%. In addition, the IC50 under setting [1] came to 0.0371 µM.
For `COc1cc2c(c3nc(C)oc13)CC1C(Nc3cccc(F)c3)=NN=C21` (stereo not drawn) [Compound 605, (3-Fluoro-phenyl)-(4-methoxy-2-methyl-7,9-dihydro-3-oxa-1,6,7-triaza-cyclopenta[b]-as-indacen-8-yl)-amine], the inhibition at 10 µM (PDGF-R kinase activity) amounted to 97.5%. Besides, for the setting “read-out: IC50 (μM) on PDGF-R kinase activity”, the IC50 is 0.0051 µM.
On to `CCOC(=O)CNC(=O)n1nc2c(c1Nc1cccc(F)c1)Cc1cc(OC)c(OC)cc1-2` [Compound 407, {[3-(3-Fluoro-phenylamino)-6,7-dimethoxy-4H-indeno[1,2-c]pyrazole-2-carbonyl]-amino}-acetic acid ethyl ester], for which the inhibition at 10 µM (PDGF-R kinase activity) is 39%. The IC50 under setting [1] stood at 9.88 µM.
The like results for `COc1cc2c(cc1OC)-c1nn(COC(C)=O)c(Nc3cccc(F)c3)c1C2` [Compound 497, Acetic acid 3-(3-fluoro-phenylamino)-6,7-dimethoxy-4H-indeno[1,2-c]pyrazol-2-ylmethyl ester] were, in that order, 97% and 0.0777 µM.

The record behind these values is patent US7196110B2, “N-substituted tricyclic 3-aminopyrazoles as inhibitors for the treatment of cell proliferative disorders” (Janssen Phamaceutica N.V., priority 2002, dated 2007).
